Measurements published in PubChem BioAssay (NCI).
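Abbreviation: GI50, concentration required for 50% inhibition of growth. TGI: total growth inhibition.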

Columns and labels:
Test in all cases: NCI-60 cell line screen, 384-well format
A498 renal = test system: A498 renal
CCRF-CEM leukemia = test system: CCRF-CEM leukemia
EKVX NSCLC = test system: EKVX NSCLC
HT29 colon = test system: HT29 colon
LOX IMVI melanoma = test system: LOX IMVI melanoma
M14 melanoma = test system: M14 melanoma
MDA-MB-231 breast = test system: MDA-MB-231 breast
NCI-H226 lung = test system: NCI-H226 lung
NCI/ADR-RES ovarian = test system: NCI/ADR-RES ovarian
OVCAR-8 ovarian = test system: OVCAR-8 ovarian
PC-3 prostate = test system: PC-3 prostate
SK-OV-3 ovarian = test system: SK-OV-3 ovarian
TK-10 renal = test system: TK-10 renal

Question: Which GI50 (A498 renal) does the source give for `NC(=O)c1nc(-c2c(F)cccc2Cl)oc1Nc1ccc(C(=O)N2CCOCC2)cc1` here?
Answer: 1.86 µM

Question: What about the TGI (A498 renal) of the same compound?
Answer: 16.1 µM

Question: And the GI50 (CCRF-CEM leukemia)?
Answer: 0.211 µM

Question: What about the TGI (CCRF-CEM leukemia) of the same compound?
Answer: 0.383 µM

Question: And the GI50 (EKVX NSCLC)?
Answer: 1.96 µM

Question: And the TGI (EKVX NSCLC)?
Answer: 7.57 µM

Question: And the GI50 (HT29 colon)?
Answer: 2.48 µM

Question: And the TGI (HT29 colon)?
Answer: 25 µM

Question: And the GI50 (LOX IMVI melanoma)?
Answer: 0.869 µM

Question: What about the TGI (LOX IMVI melanoma) of the same compound?
Answer: 2.39 µM

Question: And the GI50 (M14 melanoma)?
Answer: 17.3 µM

Question: What about the TGI (M14 melanoma) of the same compound?
Answer: > 47.5 µM

Question: What about the GI50 (MDA-MB-231 breast) of the same compound?
Answer: 1.34 µM

Question: And the TGI (MDA-MB-231 breast)?
Answer: 5.94 µM

Question: What about the GI50 (NCI-H226 lung) of the same compound?
Answer: 0.474 µM

Question: And the TGI (NCI-H226 lung)?
Answer: 2.67 µM

Question: What about the GI50 (NCI/ADR-RES ovarian) of the same compound?
Answer: 2.46 µM

Question: And the TGI (NCI/ADR-RES ovarian)?
Answer: 7.79 µM

Question: What about the GI50 (OVCAR-8 ovarian) of the same compound?
Answer: 4.51 µM

Question: What about the TGI (OVCAR-8 ovarian) of the same compound?
Answer: 18.7 µM

Question: What about the GI50 (PC-3 prostate) of the same compound?
Answer: 4.22 µM

Question: What about the TGI (PC-3 prostate) of the same compound?
Answer: 27.2 µM

Question: What about the GI50 (SK-OV-3 ovarian) of the same compound?
Answer: 6.28 µM

Question: What about the TGI (SK-OV-3 ovarian) of the same compound?
Answer: 28.6 µM

Question: What about the GI50 (TK-10 renal) of the same compound?
Answer: 2.58 µM

Question: And the TGI (TK-10 renal)?
Answer: 8.79 µM
